According to US20250011878A1, “METHOD TO DETECT RNA BIOMARKERS” (ITALFARMACO SPA, priority 2021, published 2025):
Like-named read-outs stand apart in the source and are kept apart here.

How the values were obtained:
[1] = rat, in vivo, 1000 mg/kg
[2] = dog, in vivo, 1000 mg/kg
human monocytes = assay: RNAseq gene expression in purified human monocytes treated with ITF3756 and/or TNF-α; type: cell-based
Text: PBMCs used for the experiments were obtained from Buffy Coats of healthy donors (all samples tested negative for transmissible diseases as required for blood transfusion) separated over a Ficoll-Hypaque gradient (Biochrom). Monocytes were purified by negative selection from 100×10^6 PBMC using Pan Monocytes Isolation Kit (Milteny) following manufacturer's instructions. By Pan Monocyte Isolation kit untouched monocytes are isolated from human PBMCs and the simultaneous enrichment of classical (CD14^++CD16^−), non classical (CD14^+CD16^++) and intermediate (CD14^++CD16^+) monocytes is achieved. Non-monocytes, such as T cells, NK cells, B cells, dendritic cells, and basophils are indirectly magnetically labeled using a cocktail of biotin-conjugated antibodies and anti-Biotin MicroBeads. Briefly, 400 μL of Buffer (PBS 1×, 0.5% BSA and 2 mM EDTA), 100 μL of FcR Blocking Reagent and 100 μL of Biotin-Antibody Cocktail were added to PBMC, previously washed with PBS by centrifugation 300×g for 5 minutes, mixed and incubate for 5 minutes in the refrigerator (2-8° C.). After incubation, 300 μL of Buffer and 200 μL of anti-biotin microbeads were added to the cells, mixed and incubate further for 10 minutes in the refrigerator. After incubation cells were processed by subsequent magnetic cell separation. Cell suspension was applied onto the column and the flow-through containing unlabeled cells, representing the enriched monocytes, was collected. Purified monocytes were washed with Buffer by centrifugation 300×g for 5 minutes and counted in PBS. Purified monocytes (1,0×10^6/ml) were pre-treated for 2 h with ITF3756 1 μM or DMSO (0.005%) in 12-well plates in 1 ml final volume of complete medium (RPMI (Biochrom), FCS 10% and penicillin/streptomycin 1× (Sigma)). The cells were then stimulated or not with TNF-α (100 ng/mL, Peprotech) for 4h. After incubation with ITF3756 and TNF-α, the cells were collected, washed with PBS by centrifugation 300×g for 5 minutes and stored at −80° C. Samples were thawed on the bench for 2 minutes and total RNA was extracted with Trizol reagent (Thermo Fisher Scientific), following manufacturer's instructions. Briefly, Trizol reagent (0.75 ml Trizol per 5-10×10^6 cells) was added to the samples and the samples were incubated at room temperature (RT) for 5 minutes. After incubation, chloroform (150 μL per 0.75 mL Trizol) was added to the samples and after 3 minutes of incubation at RT, samples were centrifuged for 12000×g for 14 minutes at 4° C. After centrifugation, the mixture separates into 3 phases and RNA remains in the aqueous phase. The aqueous phase was removed for each sample and placed in new tubes, and isopropanol (0,375 ml per 0.75 ml of Trizol) was added in each tube. Samples was incubated for 30 minutes in the refrigerator (2-8° C.). After incubation, samples were centrifugated for 12000×g for 10 minutes at 4° C., the supernatant was removed and 75% ethanol (0.75 ml per 0.75 ml of Trizol) was added to samples. Samples were centrifuged for 7500×g for 5 minutes at 4° C., and the supernatant discarded. RNA was air dried on the bench for 5-10 minutes. RNA Samples was then resuspended in water (10-50 μL). The scheme of the experimental procedures carried out to generate the RNA sequence data is represented in FIG. 1. To determine the quantity and the integrity/purity of RNA samples, check controls were first performed by the Agilent Technologies 2100 Bioanalyzer using RNA 6000 LabChip® kit (Agilent #5067-1511). The Bioanalyzer is a bio-analytical device based on a combination of microfluidic chips, voltage-induced size separation in gel filled channels and laser-induced fluorescence (LIF) detection on a miniaturized scale. The RNA Integrity Number (RIN) software algorithm allows the classification of total RNA, based on a numbering system from 1 to 10, (with 1 being the most degraded and 10 being the most intact). […] Purified samples were processed using TruSeq RNA-Seq v2 Library Preparation Kit. […]

macrophages = assay: in vitro macrophage differentiation in the presence of ITF3756; type: cell-based
[3] = mouse, in vivo, 1000 mg/kg
[4] = ITF3756 1 μM in combination with TNF-α 100 ng/mL, RNAseq
[5] = ITF3756 1 μM in the presence of TNF-α 100 ng/mL, RNAseq
[6] = ITF3756 + TNFα vs vehicle-treated control (don)
[7] = M2 marker, human monocytes, ITF3756 1 μM, RNAseq
[8] = single treatment (ITF3756 1 μM or TNF-α 100 ng/mL), RNAseq, vs control
[9] = single treatment (ITF3756 1 μM), RNAseq, vs control
[10] = single treatment vs vehicle-treated control (don), monocytes 4 h, padj<0.05
[11] = versus control, not shared with TNF-α or ITF3756+TNF-α

## O=C(NO)c1ccc(Cn2nnnc2-c2cccs2)cc1 [ITF3756, N-hydroxy-4-((5-(thiophen-2-yl)-1 H-tetrazol-1-yl)methyl)benzamide]
[1]
  tolerability: well tolerated
[2]
  tolerability: well tolerated
Human monocytes; ITF3756 1 μM combined with TNF-α 100 ng/mL, RNAseq
  CD40 gene expression: slightly increases the upregulation of CD40 expression induced by TNF-α alone
Human monocytes; [4]
  ADA gene expression: upregulation
  FATP1/SLC27A1 gene expression: the basal expression of the gene is maintained
  IRF6 gene expression: no effect
  NBEAL2 gene expression: increases the expression
Human monocytes; [5]
  ANXA6 gene expression: the upregulation is even stronger and probably synergistic
  CD84 gene expression: downregulation is further enhanced
  CD163 gene expression: down-modulated
  CD204/MSR1 gene expression: strongly down-modulated
  CD206/MRC1 gene expression: strongly down-modulated
  CXCL2 gene expression: reverts the upregulation induce by TNF establishing a normal level of expression
  LTBP4 gene expression: counters this downregulation
  RANK/TNFRSF11a gene expression: downregulation of RANK/TNFRSF11a is increased compared to single treatments
  STAB1 gene expression: synergistically reduced
Human monocytes; [6]
  Genes Down regulated (number of genes modulated): 2329
  Genes Up regulated (number of genes modulated): 2282
Human monocytes; ITF3756+TNF-α, compared to untreated control, RNAseq
  MMP9 gene expression: No modulation
Human monocytes; [7]
  Fold change ADA: −1.9
  Fold change CD163: −4
  Fold change CD204/MSR1: −2.6
  Fold change CD206/MRC1: −13.3
  Fold change MMP9: −3.6
  Fold change STAB1 (Stabilin-1/Clever-1): −14
Human monocytes; cells treated with TNF-α+ITF3756, RNAseq
  downregulation of PD-L1 (CD274) gene expression: 59%
Human monocytes; [8]
  ADA gene expression: downmodulated
  IRF6 gene expression: upregulates the expression
  LTBP4 gene expression: upregulates the expression
Human monocytes; single treatment (ITF3756 1 μM or TNF-α 100 ng/mL), RNAseq, vs untreated control
  MMP9 gene expression: down-modulated
Human monocytes; [9]
  ANXA6 gene expression: robust upregulation
  CD40 gene expression: upregulates
  CD84 gene expression: strongly downregulates
  CD163 gene expression: down-modulated
  CD204/MSR1 gene expression: down-modulated
  CD206/MRC1 gene expression: strongly down-modulated
  CXCL2 gene expression: decreases the expression
  CXCL3 gene expression: reduced the expression
  FATP1/SLC27A1 gene expression: up-regulates the expression
  NBEAL2 gene expression: increases the expression
  RANK/TNFRSF11a gene expression: strong downregulation
  STAB1 gene expression: strongly downregulated
Human monocytes; single treatment (ITF3756), vs control
  CD276 gene expression: down-regulated the expression
Human monocytes; [10]
  Genes Down regulated (number of genes modulated): 1503
  Genes Up regulated (number of genes modulated): 1499
Human monocytes; [11]
  genes specifically downregulated (Venn diagram): 386
  genes specifically upregulated (Venn diagram): 537
macrophages
  M1 macrophages: increase in M1 macrophages
[3]
  tolerability: well tolerated
